The values that follow are results of earlier work, collected in patent US11154585B2, “Orodispersible film composition comprising enalapril for the treatment of hypertension in a pediatric population” (PHARMATHEN S.A., priority 2017, dated 2021).

Counter-ions that a name gives are not always drawn. Like-named read-outs stand apart in the source and are kept apart here.

For the compound `CCOC(=O)[C@H](CCc1ccccc1)N[C@@H](C)C(=O)N1CCC[C@H]1C(=O)O` [Enalapril maleate], the Solubility entry runs as follows: (alcohol) “soluble”; (methanol and dimethylformamide) “freely soluble”; (nonpolar organic solvents) “practically insoluble”; (semi polar organic solvents) “slightly soluble”; (water) “sparingly soluble”.
